Laboratory results reported in patent US20230227447A1, “BENZYLAMINE DERIVATIVES AS DDRS INHIBITORS” (CHIESI FARMACEUTICI S.P.A., priority 2020, published 2023).

Key:
[1] = biological target: DDR1 (Homo sapiens, UniProt Q08345); experiment: DDR1 binding assay (LanthaScreen Europium Kinase Binding assay); design: purchased Carna Biosciences; conditions: 5 nM DDR1, 20 nM Kinase Tracer 178, 1 hour at room temperature; Ki from IC50 by Cheng-Prusoff
Method: (§1) DDR1 and DDR2 binding assays were performed using Life Technologies LanthaScreen™ Europium Kinase Binding assay. The compounds were incubated with 5 nM DDR1 (Carna Biosciences) or 5 nM DDR2 (Life Technologies) for 1 hour at room temperature in white 384-well OptiPlate (PerkinElmer), containing 20 nM or 10 nM Kinase Tracer 178 respectively and 2 nM Europium labelled anti-GST antibody (Life Technologies) in assay buffer (50 mM HEPES pH 7.5, 10 mM MgCl2, 1 mM EGTA and 0.01% BRIJ35).
(§2) The ratio of fluorescence emission 665 nm/615 nm after excitation at 340 nm was obtained using the Tecan Spark 20M plate reader. IC50 values were determined in GraphPad Prism 7.0 software, using 4 parameter model: log(inhibitor) vs. response. IC50 values were converted in Ki using the Cheng-Prusoff equation (Ki=IC50/(1+[Tracer]/Kd).

[2] = biological target: T1, DDR2 (Homo sapiens, UniProt Q16832); experiment: DDR2 binding assay (LanthaScreen Europium Kinase Binding assay); design: purchased Life Technologies; conditions: 5 nM DDR2, 10 nM Kinase Tracer 178, 1 hour at room temperature; Ki from IC50 by Cheng-Prusoff
T1 sequence (Q16832 22-855): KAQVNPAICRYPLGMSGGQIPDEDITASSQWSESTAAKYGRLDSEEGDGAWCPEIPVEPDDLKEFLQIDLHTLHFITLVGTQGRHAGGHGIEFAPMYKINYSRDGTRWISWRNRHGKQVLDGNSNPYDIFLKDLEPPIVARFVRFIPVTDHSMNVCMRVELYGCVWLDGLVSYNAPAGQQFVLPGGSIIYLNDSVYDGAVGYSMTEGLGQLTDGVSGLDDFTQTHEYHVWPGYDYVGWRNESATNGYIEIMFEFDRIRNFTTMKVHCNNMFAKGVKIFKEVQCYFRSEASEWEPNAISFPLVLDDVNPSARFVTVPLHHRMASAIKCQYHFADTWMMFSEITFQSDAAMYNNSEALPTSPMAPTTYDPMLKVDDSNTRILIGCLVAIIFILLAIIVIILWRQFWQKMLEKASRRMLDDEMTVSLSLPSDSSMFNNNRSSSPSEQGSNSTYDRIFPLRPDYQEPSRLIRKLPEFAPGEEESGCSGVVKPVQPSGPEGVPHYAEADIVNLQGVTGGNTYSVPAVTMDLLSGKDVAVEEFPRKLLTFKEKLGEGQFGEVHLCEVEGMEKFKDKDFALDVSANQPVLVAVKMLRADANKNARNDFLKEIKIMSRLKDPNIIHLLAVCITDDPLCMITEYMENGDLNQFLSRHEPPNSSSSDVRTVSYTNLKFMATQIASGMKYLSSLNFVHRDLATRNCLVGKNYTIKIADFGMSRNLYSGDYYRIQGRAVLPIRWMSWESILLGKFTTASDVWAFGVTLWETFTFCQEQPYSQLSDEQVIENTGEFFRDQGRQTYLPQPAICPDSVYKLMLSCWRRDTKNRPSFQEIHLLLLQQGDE
Method: as §1, §2

Chain of DDR1 (Q08345 19-913): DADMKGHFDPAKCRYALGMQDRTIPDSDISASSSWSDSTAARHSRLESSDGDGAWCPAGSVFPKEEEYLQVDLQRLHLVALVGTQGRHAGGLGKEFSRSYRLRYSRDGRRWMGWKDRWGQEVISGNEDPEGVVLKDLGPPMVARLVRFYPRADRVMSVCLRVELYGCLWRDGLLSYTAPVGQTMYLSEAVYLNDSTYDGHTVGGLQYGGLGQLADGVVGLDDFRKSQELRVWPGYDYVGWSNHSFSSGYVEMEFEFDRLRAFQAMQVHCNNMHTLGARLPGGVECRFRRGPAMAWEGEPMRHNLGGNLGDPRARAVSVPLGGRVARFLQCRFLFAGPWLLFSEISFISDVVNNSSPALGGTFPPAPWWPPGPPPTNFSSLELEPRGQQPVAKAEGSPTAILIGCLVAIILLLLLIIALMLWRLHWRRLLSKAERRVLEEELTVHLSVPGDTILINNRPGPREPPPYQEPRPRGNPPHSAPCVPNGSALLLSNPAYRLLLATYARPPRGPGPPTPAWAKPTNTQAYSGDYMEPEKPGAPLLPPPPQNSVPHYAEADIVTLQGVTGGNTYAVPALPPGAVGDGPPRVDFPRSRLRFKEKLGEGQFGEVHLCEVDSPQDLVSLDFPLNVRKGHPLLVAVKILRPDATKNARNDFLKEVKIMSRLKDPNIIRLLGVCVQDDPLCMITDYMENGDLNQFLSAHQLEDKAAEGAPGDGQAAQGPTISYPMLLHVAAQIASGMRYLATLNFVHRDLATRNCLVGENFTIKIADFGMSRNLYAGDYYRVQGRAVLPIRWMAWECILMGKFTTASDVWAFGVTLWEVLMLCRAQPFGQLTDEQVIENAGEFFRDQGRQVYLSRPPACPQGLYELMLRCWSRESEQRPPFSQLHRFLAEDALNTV

SMILES	Ki [1] [nM]	Ki [2] [nM]
CC(C)c1ccc(C(=O)Nc2cc(CN3CCN(C)CC3)cc(C(F)(F)F)c2)cc1CNC(=O)c1cnc2[nH]ccc2c1 [Example 27, N-(2-isopropyl-5-((3-((4-methylpiperazin-1-yl)methyl)-5-(trifluoromethyl)phenyl)carbamoyl)benzyl)-1H-pyrrolo[2,3-b]pyridine-5-carboxamide]	300 to 1000	300 to 1000
O=C(Nc1cccc(C(F)(F)F)c1)c1ccc(F)c(CNc2cnc3[nH]ccc3c2)c1 [Example 33, 3-(((1H-pyrrolo[2,3-b]pyridin-5-yl)amino)methyl)-4-fluoro-N-(3-(trifluoromethyl)phenyl)benzamide]	< 30	< 30
Cc1cn(-c2cc(NC(=O)c3ccc(C)c(CNc4ccnc(C#N)c4)c3)cc(C(F)(F)F)c2)cn1 [Example 7, 3-(((2-cyanopyridin-4-yl)amino)methyl)-4-methyl-N-(3-(4-methyl-1H-imidazol-1-yl)-5-(trifluoromethyl)phenyl)benzamide]	30 to 300	30 to 300
Cc1cn(-c2cc(NC(=O)c3ccc(C)c(CNc4cnc5ccnn5c4)c3)cc(C(F)(F)F)c2)cn1 [Example 1, 4-methyl-N-(3-(4-methyl-1H-imidazol-1-yl)-5-(trifluoromethyl)phenyl)-3-((pyrazolo[1,5-a]pyrimidin-6-ylamino)methyl)benzamide]	< 30	< 30
Cc1ccc(C(=O)Nc2cc(CN3CCN(C)CC3)cc(C(F)(F)F)c2)cc1CNC(=O)c1cnc2ccccn12 [Example 21, N-(2-methyl-5-((3-((4-methylpiperazin-1-yl)methyl)-5-(trifluoromethyl)phenyl)carbamoyl)benzyl)imidazo[1,2-a]pyridine-3-carboxamide]	< 30	< 30
CNC(=O)c1cc(NCc2cc(C(=O)Nc3cc(CN4CCN(C)CC4)cc(C(F)(F)F)c3)ccc2C)ccn1 [Example 24, N-methyl-4-((2-methyl-5-((3-((4-methylpiperazin-1-yl)methyl)-5-(trifluoromethyl)phenyl)carbamoyl)benzyl)amino)picolinamide]	< 30	< 30
Cc1cn(-c2cc(NC(=O)c3ccc(C)c(CNc4ccc5ncsc5c4)c3)cc(C(F)(F)F)c2)cn1 [Example 3, 3-((benzo[d]thiazol-6-ylamino)methyl)-4-methyl-N-(3-(4-methyl-1H-imidazol-1-yl)-5-(trifluoromethyl)phenyl)benzamide]	30 to 300	30 to 300

Next, values leading:

Ki [1] [nM]	Ki [2] [nM]	SMILES
30 to 300	30 to 300	CCCc1ccc(C(=O)Nc2cc(CN3CCN(C)CC3)cc(C(F)(F)F)c2)cc1CNc1cnc2ccnn2c1 [Example 17, N-(3-((4-methylpiperazin-1-yl)methyl)-5-(trifluoromethyl)phenyl)-4-propyl-3-((pyrazolo[1,5-a]pyrimidin-6-ylamino)methyl)benzamide]
30 to 300	30 to 300	CC(C)c1ccc(C(=O)Nc2cc(CN3CCN(C)CC3)cc(C(F)(F)F)c2)cc1CNc1cnc2ccnn2c1 [Example 16, 4-isopropyl-N-(3-((4-methylpiperazin-1-yl)methyl)-5-(trifluoromethyl)phenyl)-3-((pyrazolo[1,5-a]pyrimidin-6-ylamino)methyl)benzamide]
< 30	300 to 1000	CCN(Cc1cc(C(=O)Nc2cc(-n3cnc(C)c3)cc(C(F)(F)F)c2)ccc1C)c1cnc2ccnn2c1 [Example 2, 3-((ethyl(pyrazolo[1,5-a]pyrimidin-6-yl)amino)methyl)-4-methyl-N-(3-(4-methyl-1H-imidazol-1-yl)-5-(trifluoromethyl)phenyl)benzamide]
< 30	< 30	Cc1cn(-c2cc(NC(=O)c3ccc(C)c(CNC(=O)c4cnc5[nH]ccc5c4)c3)cc(C(F)(F)F)c2)cn1 [Example 25, N-(2-methyl-5-((3-(4-methyl-1H-imidazol-1-yl)-5-(trifluoromethyl)phenyl)carbamoyl)benzyl)-1H-pyrrolo[2,3-b]pyridine-5-carboxamide]
